This is an account of results in article PMC8584173, “The Cytotoxic Effect of Copper (II) Complexes with Halogenated 1,3-Disubstituted Arylthioureas on Cancer and Bacterial Cells” (International Journal of Molecular Sciences, 2021).

One assay deals with PC3 cells. The assay is described as follows: LDH release assay, PC3. In kind it is cell-based, human. The note with it: 72 h. Here is the method: (§1) The presence of lactate dehydrogenase (LDH) in culture medium indicates a disturbance of the integrity of the cellular membrane. The LDH activity was performed after 72 h incubation of cells (1 × 10^4 cells per well) in 96-well plates with selected compounds according to manufacturer’s protocol (Roche Diagnostics, Germany), as was described by Chrzanowska et al.. Compound mediated cytotoxicity was determined using equation: ((A test sample−A low control)/ (A high control−A low control)) × 100% (A-absorbance), where “low control” means cells in medium with 2% FBS without tested compounds, and “high control” means cells incubated in medium with 2% FBS and 1% Triton X-100 (100% LDH release). The cytotoxicity was expressed as percentage of LDH release as compared with the maximum release of LDH from Triton-X-100-treated cells.
Background: LDH in the medium is a marker of cell lysis.

The subject of the next assay is SW480 cells. Description: LDH release assay, SW480. The note with it: 72 h. The class given is cell-based, human. Here is the method:
as §1

The structures appear in SMILES notation.

For `O=[N+]([O-])c1cc([N+]2=C(Nc3ccc(I)cc3)[S][Cu-2]23[S]C(Nc2ccc(I)cc2)=[N+]3c2ccc(Cl)c([N+](=O)[O-])c2)ccc1Cl` [Compound 8, Copper (II) complex with 1-(4-iodophenyl)-3-(4-chloro-3-nitrophenyl)thiourea], the LDH release with PC3 cells (PC3, 10 μM) was 27.2%; in the assay on PC3 cells (PC3, 40 μM), 56.4%; with PC3 cells (PC3, 60 μM) it was 64%; in the assay with SW480 cells (SW480, 20 μM), 42%; in the assay on SW480 cells (SW480, 40 μM) it was 46.4%; in the assay on SW480 cells (SW480, 60 μM), 58%.
